Activity calls are given as the source filed them. No cut-off for these calls is given here.
What was measured:
Escherichia coli = test: Antibacterial activity against Escherichia coli ATCC 25922 assessed as bacterial growth inhibition at <=128 ug/ml incubated for 24 hrs by broth dilution method; assay type: functional, organism-based; conditions: dose <= 128.0 µg/ml
[1] = Thiol reactivity of compound at pH 7.4 buffer at 100 uM and measured for 4 hrs every 5 mins in presence of DTNB and TCEP by microplate reader analysis; assay type: physicochemical; conditions: pH 7.4, 4 h
Staphylococcus aureus = test: Antibacterial activity against Staphylococcus aureus ATCC 29213 assessed as bacterial growth inhibition at <= 128 ug/ml incubated for 24 hrs by broth dilution method; assay type: functional, organism-based; conditions: dose <= 128.0 µg/ml
[2] = target: UDP-N-acetylglucosamine 1-carboxyvinyltransferase (Escherichia coli K-12) (UniProt P0A749); test: (§1) Inhibition of recombinant Escherichia coli MurA expressed in Escherichia coli NiCo21 assessed as residual activity using UNAG and PEP as substrate at 500 uM preincubated for 30 mins in presence of UNAG followed by PEP substrate addition and measured after 15 mins by malachite green based colorimetric assay; conditions: time 45.0 min
Chain of UDP-N-acetylglucosamine 1-carboxyvinyltransferase (Escherichia coli K-12) (P0A749 whole entry): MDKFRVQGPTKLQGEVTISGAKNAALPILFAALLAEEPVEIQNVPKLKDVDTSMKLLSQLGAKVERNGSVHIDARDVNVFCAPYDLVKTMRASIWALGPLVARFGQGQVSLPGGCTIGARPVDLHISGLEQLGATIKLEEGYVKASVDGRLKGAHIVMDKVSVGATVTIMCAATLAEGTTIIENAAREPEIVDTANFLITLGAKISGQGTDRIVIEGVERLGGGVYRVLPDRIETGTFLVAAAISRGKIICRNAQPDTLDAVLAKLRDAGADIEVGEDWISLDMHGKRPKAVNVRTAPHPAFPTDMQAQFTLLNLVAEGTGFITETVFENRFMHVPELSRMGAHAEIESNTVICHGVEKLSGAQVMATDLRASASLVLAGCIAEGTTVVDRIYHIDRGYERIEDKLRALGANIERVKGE

[3] = target: UDP-N-acetylglucosamine 1-carboxyvinyltransferase (Escherichia coli K-12) (UniProt P0A749); test: Irreversible inhibition of recombinant Escherichia coli MurA expressed in Escherichia coli NiCo21 using UNAG and PEP as substrate assessed as second-order rate constant for enzyme inactivation, ratio of Kinact/Ki preincubated for 30 mins in presence of UNAG followed by 100 fold dilution and PEP substrate addition and measured after 15 mins by malachite green based colorimetric assay; conditions: time 45.0 min
[4] = target: UDP-N-acetylglucosamine 1-carboxyvinyltransferase (Escherichia coli K-12, UniProt P0A749); test: Inhibition of recombinant Escherichia coli MurA expressed in Escherichia coli NiCo21 using UNAG and PEP as substrate preincubated for 30 mins in presence of UNAG followed by PEP substrate addition and measured after 15 mins by malachite green based colorimetric assay
Chain of UDP-N-acetylglucosamine 1-carboxyvinyltransferase (P0A749 whole entry): as above

[5] = Thiol reactivity of compound at pH 7.4 buffer assessed as fold decrease by measuring second order rate constant at 100 uM and measured for 4 hrs every 5 mins in presence of DTNB and TCEP by microplate reader analysis relative to Iodoacetamide; assay type: physicochemical; conditions: pH 7.4, 4 h
[6] = target: UDP-N-acetylglucosamine 1-carboxyvinyltransferase (Escherichia coli K-12) (UniProt P0A749); test: as §1, with “Irreversible inhibition” for “Inhibition”, “1 mM” for “500 uM”; conditions: time 45.0 min

Compound	Drug metabolism [1]	Activity [2]	Ratio [3]	IC50 [4]	fold change (FC) [5]	Activity [6]	Activity (Escherichia coli)	Activity (Staphylococcus aureus)
O=C(CCl)N1CCOCC1	Metabolite_Detected	87%					inactive	inactive
COc1cc(NC(=O)CCl)cc(OC)c1OC	Metabolite_Detected	92%					inactive	inactive
O=C(CCl)Nc1ccc2nsnc2c1	Metabolite_Detected		4.84 10^-4/µM/min	287 µM			inactive	inactive
O=C(CCl)N1CCCC(OP(=O)(Oc2ccccc2)Oc2ccccc2)C1 (stereo not drawn)	Metabolite_Detected			543 µM			inactive	inactive
O=C(CCl)Nc1ccc(-c2ncco2)cc1	Metabolite_Detected	71%					inactive	inactive
O=C(CCl)NC1CCCC(OP(=O)(Oc2ccccc2)Oc2ccccc2)C1 (stereo not drawn)	Metabolite_Detected	89%					inactive	inactive
O=C(CCl)Nc1ccc(-c2nnn[nH]2)cc1	Metabolite_Detected	100%					inactive	inactive
O=C(CCl)NC1CCC2CCCCC2C1 (stereo not drawn)	Metabolite_Notdetected	79%					inactive	inactive
O=C(CCl)N1CCC(COP(=O)(Oc2ccccc2)Oc2ccccc2)C1 (stereo not drawn)	Metabolite_Detected			311 µM			inactive	inactive
CC1CCCN(C(=O)CCl)C1 (stereo not drawn)	Metabolite_Detected	80%					inactive	inactive
O=C(CCl)N1CCCCC1	Metabolite_Detected	79%					inactive	inactive
NC1CCN(C(=O)CCl)CC1	Metabolite_Detected	82%					inactive	inactive
O=C(CCl)Nc1ccc2ccccc2c1	Metabolite_Detected	83%					inactive	inactive
O=C(CCl)N1CCN(CC(=O)N2CCCCC2)CC1	Metabolite_Detected	81%					inactive	inactive
CCOC(=O)N1CCN(C(=O)CCl)CC1	Metabolite_Detected	95%					inactive	inactive
CCOC(=O)C1CCCN(C(=O)CCl)C1 (stereo not drawn)	Metabolite_Detected	100%					inactive	inactive
COC(=O)c1ccc(NC(=O)CCl)o1	Metabolite_Detected	75%					inactive	inactive
CCCCOc1ccc(NC(=O)CCl)cc1	Metabolite_Detected	100%					inactive	inactive
O=C(CCl)NC1CCCCC1	Metabolite_Notdetected	74%					inactive	inactive
O=C(CCl)Nc1nccs1	Metabolite_Detected	55%			4		inactive	inactive
CC(=O)NC1CCCC2CCCCC21 (stereo not drawn)						96.1%		
O=C(CCl)N1CCC(COP(=O)(O)O)C1 (stereo not drawn)	Metabolite_Detected	47%					inactive	inactive
N#Cc1ccc(NC(=O)CCl)cc1	Metabolite_Detected	89%					inactive	inactive
CC(C)CNC(=O)CCl	Metabolite_Notdetected	90%					inactive	inactive
O=C(CCl)NC12CC3CC(CC(C3)C1)C2	Metabolite_Notdetected	77%					inactive	inactive
O=C(CCl)Nc1ccncc1	Metabolite_Detected	77%					inactive	inactive
Cc1cc(NC(=O)CCl)on1	Metabolite_Detected	71%					inactive	inactive
O=C(CCl)Nc1ccc(C(F)(F)F)cc1	Metabolite_Detected	77%					inactive	inactive

More lines, main results first:

Drug metabolism [1]	Activity [2]	Ratio [3]	IC50 [4]	fold change (FC) [5]	Activity [6]	Compound	Activity (Escherichia coli)	Activity (Staphylococcus aureus)
Metabolite_Detected	95%					O=C(O)C1CCN(C(=O)CCl)CC1	inactive	inactive
Metabolite_Detected	71%					O=C(CCl)N1CCC(c2ccccc2)CC1	inactive	inactive
Metabolite_Detected	75%					O=C(O)C1CCCN(C(=O)CCl)C1 (stereo not drawn)	inactive	inactive
Metabolite_Detected		4.16 10^-4/µM/min	240 µM			CS(=O)(=O)NC1CCN(C(=O)CCl)CC1	inactive	inactive
Metabolite_Detected	77%					COc1ccc(N2CCN(C(=O)CCl)CC2)cc1	inactive	inactive
Metabolite_Detected	73%					O=C(CCl)N1CCCc2ccccc21	inactive	inactive
Metabolite_Detected	61%					CC(C)(C)OC(=O)NC1CCN(C(=O)CCl)CC1	inactive	inactive
Metabolite_Detected		2.99 10^-4/µM/min	263 µM	2		O=C(CCl)N1CCC(N2CCC(Br)C2=O)C1 (stereo not drawn)	inactive	inactive
Metabolite_Detected	81%					O=C(CCl)Nc1cccc2ccccc12	inactive	inactive
Metabolite_Detected	70%					O=C(CCl)N1CCc2ccccc2C1	inactive	inactive
Metabolite_Detected		7.13 10^-3/µM/min	195 µM			O=C(CCl)N1CCC(Sc2nccs2)CC1	inactive	inactive
Metabolite_Detected	100%					CCOC(=O)C1CCN(C(=O)CCl)CC1	inactive	inactive
Metabolite_Detected	54%			167		O=C(CCl)Nc1ccc(C2CCCCC2)cc1	inactive	inactive
Metabolite_Detected			172 µM			COc1ccc2nc(SC3CCN(C(=O)CCl)CC3)[nH]c2n1	inactive	inactive
Metabolite_Detected			162 µM			O=C(CCl)N1CCC(Sc2nnc(-c3ccccc3)o2)CC1	inactive	inactive
Metabolite_Detected		2.79 10^-4/µM/min	137 µM			Cc1ccc(S(=O)(=O)NC(=O)CC2CCN(C(=O)CCl)CC2)cc1	inactive	inactive
	90%					O=C(CCl)N1CCN(c2ccccc2)CC1	inactive	inactive
Metabolite_Detected	99%					O=C(CCl)N1CCN(Cc2ccc3c(c2)OCO3)CC1	inactive	inactive

— ChEMBL document CHEMBL5352428, “Covalent inhibitors of bacterial peptidoglycan biosynthesis enzyme MurA with chloroacetamide warhead” (Eur J Med Chem, 2022)
